Measurements published in patent publication EP0640690A1, “Monoclonal antibodies specific for 5-dihydrotestosterone” (ELI LILLY AND COMPANY, priority 1993, dated 1995).

Columns and labels:
[1] = system: monoclonal antibody MoAb 276-1 (anti-5-dihydrotestosterone, hybridoma ATCC HB 11410); assay: competitive ELISA: competition with bound avidin/5-DHT complex for the antibody; type: binding, mouse; details: for IC50: concentration inhibiting 50% of antibody binding to immobilized avidin/5-DHT, read-out: IC₅₀
Experimental: The usual method of quantifying specificity of an antibody is by way of a competitive ELISA assay, a technique which is well known to one of skill in the art. In such an assay the reactivity is determined by binding an avidin/5-DHT complex to a support, such as a well in a microtiter plate, as described infra. A limited amount of anti-5-DHT antibody (such as MoAb 276-1) is then added simultaneously with differing concentrations of 5-dihydrotestosterone, which competes with the bound 5-DHT for the antibody. Unbound antibody is then removed from the wells. The concentration of 5-dihydrotestosterone which inhibits 50% of the binding of the antibody is designated as the IC₅₀. The experiment is run in parallel using testosterone in place of the 5-dihydrotestosterone. The IC₅₀ of the testosterone is then compared with the IC₅₀ of the 5-dihydrotestosterone to give a relative binding affinity.
The most preferred antibody of this invention, MoAb 276-1, has an IC₅₀ of 537 nM for 5-dihydrotestosterone, while an IC₅₀ of 4568 nM was obtained for testosterone. This antibody, therefore, is 8.5 times more specific for 5-dihydrotestosterone than for testosterone. The hybridoma producing the monoclonal antibody MoAb 276-1 is available from the American Type Culture […] (ATCC) in Rockville, Maryland, 20852 under accession number ATCC HB 11410.

[2] = system: 5-α-reductase enzyme from a female rat liver preparation; assay: 5-α-reductase inhibitor assay: 5-DHT formed from testosterone measured by MoAb 276-1 ELISA; type: biochemical; details: concentration inhibiting 100% of activity; testosterone substrate, NADPH, pH 6.5, 37°C, 20 minutes; one experiment
Experimental: This reaction mixture was incubated at 37°C for 20 minutes. The enzyme was then inactivated by incubating the reaction mixture at 80°C for 10 minutes. […] In additon, serial dilutions of the reaction mixture were made and 100 µl of each of these dilutions was added to separate wells. To each well was added 100 µl (0.35 µg) of MoAb 276-1. This plate was then incubated at 37°C for 2 hours. After this incubation period, the plate was washed four times with phosphate buffered saline (PBS). After the washing, 200 µl of anti-mouse antibody/alkaline phosphatase conjugate was added to each well. This was then incubated at 37°C for 1 hour. After the incubation each well was washed four times with PBS. To each well was then added 200 µl of p-nitrophenylphosphate. This reaction was then incubated for one hour at 37°C. Spectrophotometric measurement of each well was then performed, reading at 410 nm. This measurement provided the baseline activity of 5-α-reductase activity without an inhibitor. […] This compound was prepared as described in U.S. Patent 5,239,075, issued August 24, 1993, which is herein incorporated by reference.

Row | Compound | IC50 [1] [µM] | times more specific for 5-dihydrotestosterone than for testosterone ([1]; ratio of IC₅₀ of testosterone to IC₅₀ of 5-dihydrotestosterone) [times] | IC₁₀₀ [2] [µM]
1 | C[C@]12CCC(=O)C[C@@H]1CC[C@@H]1[C@@H]2CC[C@]2(C)[C@@H](O)CC[C@@H]12 [5-dihydrotestosterone, 17β-hydroxy-5α-androstan-3-one] | 0.537 | 8.5 | 
2 | Cc1ccc2c(c1)CC[C@@H]1[C@@H]2CCC(=O)N1C (racemic) [trans-dl-4,8-dimethyl-1,2,3,4,4a,5,6,10b-octahydrobenzo-[f]quinolin-3-one] |  |  | 0.3
3 | C[C@]12CC[C@H]3[C@@H](CCC4=CC(=O)CC[C@@]43C)[C@@H]1CC[C@@H]2O [testosterone] | 4.57 |  | 
